In ChEMBL document CHEMBL1201862, “PubChem BioAssay data set” (2004):
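All cell lines were grown in 96-well plates and treated with compound for 48 hours. Here, GI50 denotes the concentration required for 50% inhibition of growth.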 Activity calls are given as the source filed them. Cut-off read from the data, not from the text of the source: active = GI50 up to about 1.1 µM and inactive = higher.

What was measured:
Assay in all cases: NCI-60 cell line screen, 48 h
[1] = tested on: COLO 205
[2] = tested on: HOP-92
[3] = tested on: HT-29
[4] = tested on: IGROV-1
[5] = tested on: K562
[6] = tested on: KM12
[7] = tested on: MCF7
[8] = tested on: MDA-MB-231
[9] = tested on: MDA-MB-435
[10] = tested on: MDA-N
[11] = tested on: OVCAR-5
[12] = tested on: PC-3
[13] = tested on: SK-MEL-28
[14] = tested on: SK-MEL-5
[15] = tested on: SK-OV-3
[16] = tested on: SNB-75
[17] = tested on: SW-620
[18] = tested on: U-251
[19] = tested on: UO-31

| Compound | GI50 [1] | GI50 [2] | GI50 [3] | GI50 [4] | GI50 [5] | GI50 [6] | GI50 [7] | GI50 [8] | GI50 [9] | GI50 [10] | GI50 [11] | GI50 [12] | GI50 [13] | GI50 [14] | GI50 [15] | GI50 [16] | GI50 [17] | GI50 [18] | GI50 [19] |
| --- | --- | --- | --- | --- | --- | --- | --- | --- | --- | --- | --- | --- | --- | --- | --- | --- | --- | --- | --- |
| NCCNc1nc(N2CCCC2)c2nc(Cl)c(NCc3ccccc3)nc2n1 | 1.69 µM (inactive) | 1.78 µM (inactive) | 1.95 µM (inactive) | 1.66 µM (inactive) | 0.122 µM (active) | 1.71 µM (inactive) | 1.73 µM (inactive) | 1.33 µM (inactive) | 1.69 µM (inactive) | 1.67 µM (inactive) | 2.44 µM (inactive) | 2.5 µM (inactive) | 1.79 µM (inactive) | 1.75 µM (inactive) | 1.82 µM (inactive) | 1.72 µM (inactive) | 2.04 µM (inactive) | 1.63 µM (inactive) | 1.73 µM (inactive) |
| c1cnc(N2CCN(Cc3c[nH]c4ccccc34)CC2)nc1 | 25.4 µM (inactive) | > 100 µM (inactive) | 56.6 µM (inactive) | > 100 µM (inactive) | 40 µM (inactive) | 20.4 µM (inactive) | 16.9 µM (inactive) | 37.2 µM (inactive) | 31 µM (inactive) | 25.1 µM (inactive) | > 100 µM (inactive) | 23.5 µM (inactive) | > 100 µM (inactive) | 36.2 µM (inactive) | > 100 µM (inactive) | 89.9 µM (inactive) | > 100 µM (inactive) | 37.1 µM (inactive) | 38.5 µM (inactive) |
| c1ccc(C2=NN(c3nc4ccccc4s3)C3(CCCCC3)N2)nc1 | 19.3 µM (inactive) | 31.7 µM (inactive) | 19.9 µM (inactive) | 19.7 µM (inactive) | 16.6 µM (inactive) | 22 µM (inactive) | 21.6 µM (inactive) | 21.6 µM (inactive) | 23.4 µM (inactive) | 24.9 µM (inactive) | 43.5 µM (inactive) | 15.8 µM (inactive) | 44.3 µM (inactive) | 20.1 µM (inactive) | > 100 µM (inactive) | 25.6 µM (inactive) | 30.7 µM (inactive) | 20.4 µM (inactive) | 35.1 µM (inactive) |
| COc1ccc(/C=C2\N=C3N(Cc4ccccc4)C=C(N)N3C2=O)cc1 | > 100 µM (inactive) | 58.7 µM (inactive) | > 100 µM (inactive) | 69.3 µM (inactive) | > 100 µM (inactive) | > 100 µM (inactive) | > 100 µM (inactive) | 36.2 µM (inactive) | > 100 µM (inactive) | > 100 µM (inactive) | 82.8 µM (inactive) | > 100 µM (inactive) | > 100 µM (inactive) | 46.7 µM (inactive) | 37.2 µM (inactive) | 17.5 µM (inactive) | > 100 µM (inactive) | 30.3 µM (inactive) | 46.6 µM (inactive) |
| CC1(C)CC(C)(C)C1=NNC(N)=O | > 100 µM (inactive) | > 100 µM (inactive) | > 100 µM (inactive) | > 100 µM (inactive) | > 100 µM (inactive) | > 100 µM (inactive) | > 100 µM (inactive) | > 100 µM (inactive) | > 100 µM (inactive) | > 100 µM (inactive) | > 100 µM (inactive) | > 100 µM (inactive) | > 100 µM (inactive) | > 100 µM (inactive) | > 100 µM (inactive) | > 100 µM (inactive) | > 100 µM (inactive) | > 100 µM (inactive) | > 100 µM (inactive) |
| COc1ccc2c(c1)CN1C(=N2)CSC1c1ccccc1Cl (stereo unspecified) | 12.8 µM (inactive) | 11.3 µM (inactive) | 17.4 µM (inactive) | 14.9 µM (inactive) | 5.33 µM (inactive) | 18 µM (inactive) | 25.9 µM (inactive) | 21.8 µM (inactive) | 18.8 µM (inactive) | 17.1 µM (inactive) | 18.5 µM (inactive) | 16.3 µM (inactive) | 11.1 µM (inactive) | 14.4 µM (inactive) | 24.3 µM (inactive) | 19 µM (inactive) | 17.4 µM (inactive) | 21.5 µM (inactive) | 11.5 µM (inactive) |
| O=C(CNS(=O)(=O)Cc1ccccc1)NNc1ccccc1 | 3.23 µM (inactive) | > 100 µM (inactive) | > 100 µM (inactive) | 72.8 µM (inactive) | 2.5 µM (inactive) | 6.1 µM (inactive) | > 74.8 µM (inactive) | > 100 µM (inactive) | 6.95 µM (inactive) | 15.7 µM (inactive) | > 100 µM (inactive) | > 100 µM (inactive) | > 100 µM (inactive) | 80 µM (inactive) | > 100 µM (inactive) | > 36.6 µM (inactive) | 8.05 µM (inactive) | > 100 µM (inactive) | > 100 µM (inactive) |
| COc1cc(/C=C2/CCS(=O)(=O)c3ccc(C)cc3C2=O)cc(OC)c1OC | 4.85 µM (inactive) | 4.18 µM (inactive) | 3.92 µM (inactive) | 4.06 µM (inactive) | 2.06 µM (inactive) | 4.54 µM (inactive) | 4.19 µM (inactive) | 3.58 µM (inactive) | 3.79 µM (inactive) | 4.29 µM (inactive) | 5.87 µM (inactive) | 6.73 µM (inactive) | 3.59 µM (inactive) | 2.53 µM (inactive) | 7.35 µM (inactive) | 5.27 µM (inactive) | 4.76 µM (inactive) | 4.14 µM (inactive) | 5.75 µM (inactive) |
| Cc1ccc(N2C(=O)CC(=O)N(NC(=O)C(C)Oc3ccccc3C)C2=S)cc1 (stereo unspecified) | > 100 µM (inactive) | > 100 µM (inactive) | > 100 µM (inactive) | > 100 µM (inactive) | 65.9 µM (inactive) | > 100 µM (inactive) | > 100 µM (inactive) | > 100 µM (inactive) | > 100 µM (inactive) | 94.8 µM (inactive) | > 100 µM (inactive) | > 100 µM (inactive) | > 100 µM (inactive) | > 100 µM (inactive) | > 100 µM (inactive) | > 100 µM (inactive) | > 100 µM (inactive) | > 100 µM (inactive) | > 100 µM (inactive) |
| COc1ccc2c(c1)-c1c(c3ccccc3n1CCN1CCCCC1)CC2 | 13.2 µM (inactive) | 21.8 µM (inactive) | 10.3 µM (inactive) | 13.8 µM (inactive) | 11.9 µM (inactive) | 6.07 µM (inactive) | 7.24 µM (inactive) | 14.3 µM (inactive) | 24.9 µM (inactive) | 23.7 µM (inactive) | 11.9 µM (inactive) | 5.75 µM (inactive) | 30.2 µM (inactive) | 14.6 µM (inactive) | 24.2 µM (inactive) | 14.8 µM (inactive) | 26.1 µM (inactive) | 19.5 µM (inactive) | 12.6 µM (inactive) |
| O=c1c2c3c(sc2nc2n1N=CN(c1ccc(Cl)cc1)C2)CCCC3 | 35.8 µM (inactive) | 8.47 µM (inactive) | 19.5 µM (inactive) | > 100 µM (inactive) | 19.3 µM (inactive) | > 100 µM (inactive) | > 100 µM (inactive) | 16.7 µM (inactive) | > 100 µM (inactive) | 56.6 µM (inactive) | > 100 µM (inactive) | 15.1 µM (inactive) | > 100 µM (inactive) | 44.8 µM (inactive) | > 100 µM (inactive) | 24.7 µM (inactive) | > 100 µM (inactive) | 54.1 µM (inactive) | > 100 µM (inactive) |
| CC(C)OC(=O)c1ccc(CCC2=CC(=O)C=CC2=O)cc1 | 8.85 µM (inactive) | 5.05 µM (inactive) | 18.1 µM (inactive) | 13.9 µM (inactive) | 3.04 µM (inactive) | 12.2 µM (inactive) | 15.5 µM (inactive) | 8.93 µM (inactive) | 17.4 µM (inactive) | 10.4 µM (inactive) | 18 µM (inactive) | 12 µM (inactive) | 13.5 µM (inactive) | 15 µM (inactive) | 34.8 µM (inactive) | 22.5 µM (inactive) | 4.69 µM (inactive) | 15.6 µM (inactive) | 4.5 µM (inactive) |
| C[C@@H](CC(O)C(O)C(C)(C)O)C1CCC23CC12CCC1[C@@]2(C)CCC(O)C(C)(C)C2CC(OC2OC(CO)C(O)C(O)C2O)[C@]13C (stereo partly specified) | > 10 µM (inactive) | > 10 µM (inactive) | > 10 µM (inactive) | > 10 µM (inactive) | > 10 µM (inactive) | > 10 µM (inactive) | > 10 µM (inactive) | > 10 µM (inactive) | > 10 µM (inactive) | > 10 µM (inactive) | > 10 µM (inactive) | > 10 µM (inactive) | > 10 µM (inactive) | > 10 µM (inactive) | > 10 µM (inactive) | > 10 µM (inactive) | > 10 µM (inactive) | > 10 µM (inactive) | > 10 µM (inactive) |
| COC1=C2C=[N+](C)C3C(=C2C=CC1OC)Cc1cc2c(cc13)OCO2 (stereo unspecified) | 5.26 µM (inactive) | 22.7 µM (inactive) | 13.5 µM (inactive) | > 10 µM (inactive) | 6.93 µM (inactive) | 2.8 µM (inactive) | 9.77 µM (inactive) | 14.6 µM (inactive) | 15.4 µM (inactive) | 11.4 µM (inactive) | 18.2 µM (inactive) | 16.5 µM (inactive) | 15.1 µM (inactive) | 11.2 µM (inactive) | 15.1 µM (inactive) | 14.8 µM (inactive) | 26.2 µM (inactive) | 9.42 µM (inactive) | 13.7 µM (inactive) |
